According to PMC7366380, “Discovery of a Potent and Selective Covalent Inhibitor and Activity-Based Probe for the Deubiquitylating Enzyme UCHL1, with Antifibrotic Activity” (Journal of the American Chemical Society, 2020):
Where “and” joins values, the source holds several entries; their conditions need not be identical. Identical values can stand only once.

Legend:
Experiment in all cases: In-cell proteome-wide competitive ABPP, HEK293: other DUBs and proteins
[1] = biological target: DUBs and other proteins in HEK293 cells (Homo sapiens, UniProt O15372); details: for Log2 reporter intensity values, EIF3H: TMT replicates; for Log2 reporter intensity values / Log2 reporter intensity values: EIF3H: replicates A-C; for Log2 reporter intensity values: EIF3H: competition with ABP 2, DMSO substract (FC)
Chain of DUBs and other proteins in HEK293 cells (Homo sapiens, UniProt O15372) (O15372 whole entry): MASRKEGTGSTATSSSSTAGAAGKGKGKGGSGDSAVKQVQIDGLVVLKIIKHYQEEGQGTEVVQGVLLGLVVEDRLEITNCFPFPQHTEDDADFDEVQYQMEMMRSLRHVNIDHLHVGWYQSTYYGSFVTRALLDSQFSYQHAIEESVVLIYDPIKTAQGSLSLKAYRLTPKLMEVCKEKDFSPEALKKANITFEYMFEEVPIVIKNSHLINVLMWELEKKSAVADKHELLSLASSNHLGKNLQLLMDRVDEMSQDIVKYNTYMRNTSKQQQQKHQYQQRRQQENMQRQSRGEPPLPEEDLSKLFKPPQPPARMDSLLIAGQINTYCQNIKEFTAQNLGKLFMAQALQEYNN

[2] = biological target: DUBs and other proteins in HEK293 cells (Homo sapiens, UniProt Q93008); details: replicates A-C; for Log2 reporter intensity values: USP9X;USP9Y: competition with ABP 2, DMSO substract (FC); for Log2 reporter intensity values: USP9X;USP9Y, DMSO subtracted
Chain of DUBs and other proteins in HEK293 cells (Homo sapiens, UniProt Q93008) (Q93008 whole entry): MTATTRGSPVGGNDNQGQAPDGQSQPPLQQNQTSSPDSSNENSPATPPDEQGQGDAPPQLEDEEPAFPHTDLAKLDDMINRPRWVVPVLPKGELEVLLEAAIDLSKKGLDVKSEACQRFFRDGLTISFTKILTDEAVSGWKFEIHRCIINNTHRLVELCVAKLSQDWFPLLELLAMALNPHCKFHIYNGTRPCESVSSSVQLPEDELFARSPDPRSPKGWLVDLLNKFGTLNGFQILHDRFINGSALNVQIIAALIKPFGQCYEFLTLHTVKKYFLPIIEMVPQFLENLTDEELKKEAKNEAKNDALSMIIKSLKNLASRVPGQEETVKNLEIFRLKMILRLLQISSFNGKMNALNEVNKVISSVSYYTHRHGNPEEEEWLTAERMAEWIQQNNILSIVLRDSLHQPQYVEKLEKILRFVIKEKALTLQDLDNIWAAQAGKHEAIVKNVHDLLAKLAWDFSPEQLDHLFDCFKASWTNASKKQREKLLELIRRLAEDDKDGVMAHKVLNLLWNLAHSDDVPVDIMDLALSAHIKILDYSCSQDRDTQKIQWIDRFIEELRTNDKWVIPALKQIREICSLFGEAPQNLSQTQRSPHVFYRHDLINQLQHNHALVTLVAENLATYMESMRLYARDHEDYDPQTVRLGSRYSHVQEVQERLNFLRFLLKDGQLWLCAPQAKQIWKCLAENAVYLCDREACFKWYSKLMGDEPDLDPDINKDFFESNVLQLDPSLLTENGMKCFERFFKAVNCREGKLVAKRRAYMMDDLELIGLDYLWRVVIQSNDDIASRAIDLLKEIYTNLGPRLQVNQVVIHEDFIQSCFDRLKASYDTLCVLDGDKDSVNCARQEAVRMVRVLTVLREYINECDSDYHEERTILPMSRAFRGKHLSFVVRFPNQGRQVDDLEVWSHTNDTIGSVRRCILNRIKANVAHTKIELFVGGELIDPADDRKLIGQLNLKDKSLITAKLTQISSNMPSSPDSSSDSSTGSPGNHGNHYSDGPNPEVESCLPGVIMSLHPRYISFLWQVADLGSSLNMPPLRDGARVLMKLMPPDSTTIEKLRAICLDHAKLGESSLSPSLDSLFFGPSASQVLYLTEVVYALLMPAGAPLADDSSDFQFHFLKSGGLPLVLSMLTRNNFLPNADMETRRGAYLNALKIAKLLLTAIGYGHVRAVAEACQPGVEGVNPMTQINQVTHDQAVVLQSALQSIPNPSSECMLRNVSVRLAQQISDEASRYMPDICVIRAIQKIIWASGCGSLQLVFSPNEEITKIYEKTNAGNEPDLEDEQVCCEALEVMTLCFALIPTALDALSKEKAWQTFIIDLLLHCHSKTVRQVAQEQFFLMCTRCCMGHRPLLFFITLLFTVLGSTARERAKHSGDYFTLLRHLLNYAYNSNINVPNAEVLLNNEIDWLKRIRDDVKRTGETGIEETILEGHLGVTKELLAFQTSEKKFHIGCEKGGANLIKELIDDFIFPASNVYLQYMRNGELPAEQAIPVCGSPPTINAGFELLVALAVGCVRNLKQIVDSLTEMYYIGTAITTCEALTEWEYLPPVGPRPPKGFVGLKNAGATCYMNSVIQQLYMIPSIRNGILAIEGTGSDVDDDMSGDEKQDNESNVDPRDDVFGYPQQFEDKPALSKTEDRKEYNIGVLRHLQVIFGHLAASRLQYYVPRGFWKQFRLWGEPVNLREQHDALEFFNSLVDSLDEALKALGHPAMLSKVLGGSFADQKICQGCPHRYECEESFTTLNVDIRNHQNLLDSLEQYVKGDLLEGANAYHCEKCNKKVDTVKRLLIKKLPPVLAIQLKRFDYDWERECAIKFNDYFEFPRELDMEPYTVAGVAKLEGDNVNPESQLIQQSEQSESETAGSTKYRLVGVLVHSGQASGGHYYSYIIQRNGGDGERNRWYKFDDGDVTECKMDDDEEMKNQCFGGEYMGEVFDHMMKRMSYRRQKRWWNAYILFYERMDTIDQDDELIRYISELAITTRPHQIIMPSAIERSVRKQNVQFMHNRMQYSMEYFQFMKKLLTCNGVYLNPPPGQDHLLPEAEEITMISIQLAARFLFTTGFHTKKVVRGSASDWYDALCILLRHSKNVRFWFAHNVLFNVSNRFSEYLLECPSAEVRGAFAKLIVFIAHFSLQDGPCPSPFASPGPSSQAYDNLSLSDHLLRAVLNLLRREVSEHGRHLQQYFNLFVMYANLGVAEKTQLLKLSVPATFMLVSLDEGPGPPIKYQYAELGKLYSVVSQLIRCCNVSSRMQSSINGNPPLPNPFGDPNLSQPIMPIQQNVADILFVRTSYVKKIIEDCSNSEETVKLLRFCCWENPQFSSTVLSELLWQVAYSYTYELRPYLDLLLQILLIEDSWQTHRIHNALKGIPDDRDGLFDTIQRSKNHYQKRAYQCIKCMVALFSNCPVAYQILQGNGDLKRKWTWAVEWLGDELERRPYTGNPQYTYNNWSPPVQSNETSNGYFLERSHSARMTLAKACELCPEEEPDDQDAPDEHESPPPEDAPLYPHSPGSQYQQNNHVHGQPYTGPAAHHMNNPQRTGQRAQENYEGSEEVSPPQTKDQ

[3] = biological target: T1, DUBs and other proteins in HEK293 cells (Homo sapiens, UniProt Q9Y4E8); details: replicates A-C; for Log2 reporter intensity values: USP15: competition with ABP 2, DMSO substract (FC); for Log2 reporter intensity values: USP15, DMSO subtracted
T1 sequence (Q9Y4E8 1-981): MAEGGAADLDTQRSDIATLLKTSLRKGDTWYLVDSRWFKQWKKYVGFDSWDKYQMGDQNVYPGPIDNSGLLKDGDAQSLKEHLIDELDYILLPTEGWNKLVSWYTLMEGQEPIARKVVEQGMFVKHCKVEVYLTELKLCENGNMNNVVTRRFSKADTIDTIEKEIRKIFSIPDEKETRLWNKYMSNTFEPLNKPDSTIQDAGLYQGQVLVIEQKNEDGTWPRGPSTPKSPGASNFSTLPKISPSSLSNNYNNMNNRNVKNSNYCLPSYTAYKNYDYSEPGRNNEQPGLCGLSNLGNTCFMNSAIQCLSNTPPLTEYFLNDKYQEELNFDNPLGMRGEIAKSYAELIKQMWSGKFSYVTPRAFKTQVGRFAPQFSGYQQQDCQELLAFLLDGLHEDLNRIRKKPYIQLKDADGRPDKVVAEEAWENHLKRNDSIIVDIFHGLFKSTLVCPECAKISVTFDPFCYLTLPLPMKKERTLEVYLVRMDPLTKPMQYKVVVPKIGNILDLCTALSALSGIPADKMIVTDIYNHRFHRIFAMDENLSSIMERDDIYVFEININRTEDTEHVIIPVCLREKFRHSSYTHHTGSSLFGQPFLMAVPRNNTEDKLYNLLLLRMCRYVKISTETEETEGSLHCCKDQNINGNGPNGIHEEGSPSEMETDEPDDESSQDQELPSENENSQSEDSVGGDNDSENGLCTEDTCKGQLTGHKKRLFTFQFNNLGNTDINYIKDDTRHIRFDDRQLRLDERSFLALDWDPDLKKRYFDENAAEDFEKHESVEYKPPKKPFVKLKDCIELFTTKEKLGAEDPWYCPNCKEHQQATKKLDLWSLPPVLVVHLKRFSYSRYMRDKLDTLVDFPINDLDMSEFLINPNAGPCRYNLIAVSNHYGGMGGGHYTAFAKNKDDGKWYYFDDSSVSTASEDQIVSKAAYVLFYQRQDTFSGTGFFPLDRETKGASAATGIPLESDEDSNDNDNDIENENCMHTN

[4] = biological target: T2, DUBs and other proteins in HEK293 cells (Homo sapiens, UniProt Q96K76); details: replicates A-C; for Log2 reporter intensity values: USP47: competition with ABP 2, DMSO substract (FC); for Log2 reporter intensity values: USP47, DMSO subtracted
T2 sequence (Q96K76 1-1375): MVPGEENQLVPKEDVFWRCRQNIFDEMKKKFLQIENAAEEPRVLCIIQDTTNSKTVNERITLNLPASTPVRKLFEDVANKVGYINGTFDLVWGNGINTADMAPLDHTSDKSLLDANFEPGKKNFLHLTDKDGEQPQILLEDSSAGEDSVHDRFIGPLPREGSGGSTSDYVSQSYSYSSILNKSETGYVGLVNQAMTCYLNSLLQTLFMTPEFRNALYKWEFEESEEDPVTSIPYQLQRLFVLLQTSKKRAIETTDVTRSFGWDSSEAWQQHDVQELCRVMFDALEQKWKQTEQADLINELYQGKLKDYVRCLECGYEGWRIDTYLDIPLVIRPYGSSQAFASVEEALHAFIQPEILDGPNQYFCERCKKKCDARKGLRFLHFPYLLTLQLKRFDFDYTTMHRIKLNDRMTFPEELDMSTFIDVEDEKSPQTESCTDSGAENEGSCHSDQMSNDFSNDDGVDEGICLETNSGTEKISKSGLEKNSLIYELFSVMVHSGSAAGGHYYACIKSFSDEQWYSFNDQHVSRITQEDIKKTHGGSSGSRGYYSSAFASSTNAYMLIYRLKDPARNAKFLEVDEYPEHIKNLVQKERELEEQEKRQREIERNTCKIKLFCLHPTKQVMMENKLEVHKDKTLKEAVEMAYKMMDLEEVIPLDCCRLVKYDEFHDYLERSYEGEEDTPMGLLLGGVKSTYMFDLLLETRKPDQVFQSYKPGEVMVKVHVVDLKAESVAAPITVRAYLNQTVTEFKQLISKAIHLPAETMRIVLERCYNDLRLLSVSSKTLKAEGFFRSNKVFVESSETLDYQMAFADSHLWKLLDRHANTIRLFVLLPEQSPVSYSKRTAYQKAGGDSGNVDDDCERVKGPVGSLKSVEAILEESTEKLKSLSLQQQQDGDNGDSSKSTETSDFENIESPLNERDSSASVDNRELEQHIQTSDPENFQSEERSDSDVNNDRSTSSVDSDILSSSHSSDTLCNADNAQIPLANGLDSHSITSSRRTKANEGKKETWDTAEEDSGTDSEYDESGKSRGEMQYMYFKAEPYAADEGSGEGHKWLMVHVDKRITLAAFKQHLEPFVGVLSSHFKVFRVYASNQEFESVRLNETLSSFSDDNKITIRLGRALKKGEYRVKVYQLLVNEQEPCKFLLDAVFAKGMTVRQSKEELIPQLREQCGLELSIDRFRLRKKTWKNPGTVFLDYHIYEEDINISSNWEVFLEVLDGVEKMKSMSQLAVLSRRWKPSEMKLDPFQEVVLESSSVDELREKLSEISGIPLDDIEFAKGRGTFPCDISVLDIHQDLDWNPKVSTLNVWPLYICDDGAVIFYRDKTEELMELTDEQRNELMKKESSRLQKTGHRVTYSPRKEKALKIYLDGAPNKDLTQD

SMILES: CC(=O)O/N=C1\C(=O)N(Cc2cc(Cl)ccc2Cl)c2ccc(Cl)cc21 [LDN]
- Log2 reporter intensity values, EIF3H ([1]; 5 μM LDN-57444 (60 min) + 20 nM ABP 2 (10 min), All values): 0.06362 and 0.03651 and 0.05305
- Log2 reporter intensity values, EIF3H ([1]; 5 μM LDN-57444 (60 min) + 20 nM ABP 2 (10 min), DMSO subtracted): 0.03403 and 0.006918 and 0.02346
- Log2 reporter intensity values, EIF3H ([1]; 25 μM LDN-57444 (60 min) + 20 nM ABP 2 (10 min), All values): 0.05041 and 0.03867 and 0.01604
- Log2 reporter intensity values, EIF3H ([1]; 25 μM LDN-57444 (60 min) + 20 nM ABP 2 (10 min), DMSO subtracted): 0.02082 and 0.009076 and -0.01355
- Log2 t-test Difference ([1]; EIF3H, LDN - 5 μM): 0.02512
- Log2 reporter intensity values ([1]; EIF3H, LDN at 5 μM, DMSO subtracted): 0.03403 and 0.006918 and 0.02346
- Log2 reporter intensity values ([1]; EIF3H, LDN at 25 μM, DMSO subtracted): 0.02082 and 0.009076 and -0.01355
- Log2 reporter intensity values ([1]; EIF3H, LDN_5 μM, DMSO subtracted): 0.02373 and 0.004663 and 0.01625
- Log2 reporter intensity values ([1]; EIF3H, LDN_25 μM, DMSO subtracted): 0.01439 and 0.006167 and -0.009494
- Log2 reporter intensity values: EIF3H ([1]; LDN at 5 μM): 1.024 and 1.005 and 1.016
- Log2 reporter intensity values: EIF3H ([1]; LDN at 25 μM): 1.015 and 1.006 and 0.9907
- Log2 reporter intensity values: USP9X;USP9Y ([2]; LDN at 5 μM): 0.9588 and 0.9416 and 0.9642
- Log2 reporter intensity values: USP9X;USP9Y ([2]; LDN at 25 μM): 0.918 and 0.963 and 0.9662
- Log2 reporter intensity values ([2]; LDN at 5 μM): -0.06063 and -0.08675 and -0.05259
- Log2 reporter intensity values ([2]; LDN at 25 μM): -0.1235 and -0.05434 and -0.04956
- Log2 reporter intensity values ([2]; LDN_5 μM): -0.04118 and -0.05839 and -0.03582
- Log2 reporter intensity values ([2]; LDN_25 μM): -0.08207 and -0.03699 and -0.0338
- Log2 reporter intensity values: USP15 ([3]; LDN at 5 μM): 1.005 and 0.9596 and 1.069
- Log2 reporter intensity values: USP15 ([3]; LDN at 25 μM): 1.047 and 0.9593 and 0.9363
- Log2 reporter intensity values ([3]; LDN at 5 μM): 0.007561 and -0.05945 and 0.09653
- Log2 reporter intensity values ([3]; LDN at 25 μM): 0.06615 and -0.06 and -0.09494
- Log2 reporter intensity values ([3]; LDN_5 μM): 0.004993 and -0.04063 and 0.06894
- Log2 reporter intensity values ([3]; LDN_25 μM): 0.04666 and -0.041 and -0.06395
- Log2 reporter intensity values: USP47 ([4]; LDN at 5 μM): 0.9979 and 0.9926 and 1.029
- Log2 reporter intensity values: USP47 ([4]; LDN at 25 μM): 1.08 and 1.079 and 1.007
- Log2 reporter intensity values ([4]; LDN at 5 μM): -0.003055 and -0.01068 and 0.04147
- Log2 reporter intensity values ([4]; LDN at 25 μM): 0.1109 and 0.1092 and 0.01034
- Log2 reporter intensity values ([4]; LDN_5 μM): -0.002223 and -0.007484 and 0.02905
- Log2 reporter intensity values ([4]; LDN_25 μM): 0.07978 and 0.07849 and 0.007088
